# pEC50: −log10 of the molar value.
# Tested on: Human RSV-A (“Long” strain)
# Test: RSV in vitro cytoprotection assay in HEp-2 cells (ATPlite readout)
# Type: cell-based
# Conditions: human respiratory syncytial virus, 96 h; HEp-2 cells, 4-day incubation, ATPlite; read-out: Human RSV-A (“Long” strain) EC50
# Summary of the method: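 HEp-2 cells (8,000/well) given 2-fold compound dilutions in duplicate, then infected with RSV-A Long stock; 4-day incubation. Cell viability read by ATPlite luminescence (ATP), with parallel uninfected plate for cytotoxicity; EC50 from protection against CPE.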
row,Structure (SMILES),pEC50
1,Cc1cnc(N2CC3(CCOCC3)C2)c(C(=O)Nc2ccc(C(=O)N3CCc4cc(C(=O)Nc5ncccc5F)sc4-c4nc(C)ccc43)cc2)c1 [Example 140],7.30 to 8.00
2,Cc1cnc(N2CC3(CCOCC3)C2)c(C(=O)Nc2ccc(C(=O)N3CCc4cc(C(=O)Nc5c(C)cccc5F)sc4-c4ncccc43)cc2)c1 [Example 11],> 8.00
3,Cc1cnc(N2CC3(CCOCC3)C2)c(C(=O)Nc2ccc(C(=O)N3CCc4cc(C(=O)Nc5c(C)cccc5C)sc4-c4ncccc43)cc2)c1 [Example 7],> 8.00
4,Cc1cnc(N2CC3(CCOCC3)C2)c(C(=O)Nc2ccc(C(=O)N3CCc4c(sc(C(=O)Nc5ccccc5)c4F)-c4ncccc43)cc2)c1 [Example 74],> 8.00
5,Cc1cnc(N2CC3(CCOCC3)C2)c(C(=O)Nc2ccc(C(=O)N3CCc4cc(C(=O)Nc5c(F)cccc5Cl)oc4-c4cccnc43)cc2)c1 [Example 113],< 7.30
6,Cc1cnc(N2CC3(CCOCC3)C2)c(C(=O)Nc2ccc(C(=O)N3CCc4cc(C(=O)Nc5c(F)cccc5F)sc4-c4cc(C)sc43)cc2)c1 [Example 128],7.30 to 8.00
7,Cc1cnc(N2CCC3(CC2)COC3)c(C(=O)Nc2ccc(C(=O)N3CCc4cc(C(=O)Nc5c(F)cccc5F)sc4-c4ncccc43)cc2)c1 [Example 89],> 8.00
8,Cc1cnc(N2CC3COCC3C2)c(C(=O)Nc2ccc(C(=O)N3CCc4cc(C(=O)Nc5c(F)cccc5F)sc4-c4ncc(F)cc43)cc2)c1 (stereo not shown) [Example 69],7.30 to 8.00
9,Cc1cnc(N2CC3(CCOCC3)C2)c(C(=O)Nc2ccc(C(=O)N3CCc4cc(-c5nc6ccccc6[nH]5)sc4-c4cc(C)sc43)cc2)c1 [Example 132],7.30 to 8.00
10,Cc1cnc(N2CC3(CCOCC3)C2)c(C(=O)Nc2ccc(C(=O)N3CCc4cc(C(=O)Nc5cccnc5C)sc4-c4ncccc43)cc2)c1 [Example 32],> 8.00
11,Cc1ccc(C(=O)Nc2ccc(C(=O)N3CCc4cc(C(=O)Nc5c(F)cccc5C(F)(F)F)sc4-c4ncccc43)cc2)c(N2CC3(CCOCC3)C2)n1 [Example 45],> 8.00

# The next lines start with the values.
row,pEC50,Structure (SMILES)
1,< 7.30,Cc1ccc2c(n1)-c1sc(C(=O)Nc3c(C)cccc3C#N)cc1CCN2C(=O)c1ccc(NC(=O)c2ccc(C)nc2N2CC3(CCOCC3)C2)cc1 [Example 147]
2,> 8.00,O=C(Nc1c(F)cccc1F)c1cc2c(o1)-c1ncc(F)cc1N(C(=O)c1ccc(NC(=O)c3cc4c(nc3N3CC5(CCOCC5)C3)CCC4)cc1)CC2 [Example 104]
3,7.30 to 8.00,O=C(Nc1c(F)cc(F)cc1Cl)c1cc2c(s1)-c1cnccc1N(C(=O)c1ccc(NC(=O)c3cccnc3N3CC4(CCOCC4)C3)cc1)CC2 [Example 52]
4,> 8.00,Cc1cnc(N2CCC3(CC2)COC3)c(C(=O)Nc2ccc(C(=O)N3CCc4cc(C(=O)Nc5c(F)cccc5Cl)sc4-c4ncccc43)cc2)c1 [Example 93]
5,> 8.00,Cc1cnc(N2CCC3(CC2)COC3)c(C(=O)Nc2ccc(C(=O)N3CCc4cc(C(=O)Nc5c(C)cccc5F)sc4-c4ncccc43)cc2)c1 [Example 98]
6,> 8.00,COCC1(NC(=O)c2cc3c(s2)-c2ncccc2N(C(=O)c2ccc(NC(=O)c4cc(C)cnc4N4CC5(CCOCC5)C4)cc2)CC3)CCC1 [Example 25]
7,> 8.00,Cc1cnc(N2CC3(CCOCC3)C2)c(C(=O)Nc2ccc(C(=O)N3CCc4cc(C(=O)Nc5c(F)cc(F)cc5Cl)sc4-c4ncc(F)cc43)cc2)c1 [Example 65]
8,> 8.00,Cc1ccc(C(=O)Nc2ccc(C(=O)N3CCc4cc(C(=O)Nc5c(F)cc(F)cc5F)sc4-c4ncccc43)cc2)c(N2CC3(CCOCC3)C2)n1 [Example 40]
9,> 8.00,Cc1cnc(N2CC3(CCOCC3)C2)c(C(=O)Nc2ccc(C(=O)N3CCc4cc(C(=O)Nc5c(F)cccc5F)sc4-c4ncccc43)cc2)c1 [Example 9]
10,< 7.30,Cc1ccc2c(n1)-c1sc(C(=O)Nc3c(F)cccc3C(F)(F)F)cc1CCN2C(=O)c1ccc(NC(=O)c2ccc(C)nc2N2CC3(CCOCC3)C2)cc1 [Example 149]
11,> 8.00,Cc1cnc2c(c1)N(C(=O)c1ccc(NC(=O)c3cccnc3N3CC4(CCOCC4)C3)cc1)CCc1cc(C(=O)Nc3c(C)cccc3F)sc1-2 [Example 161]

# — patent US10851115B2, “Heterocyclic compounds as RSV inhibitors” (Enanta Pharmaceuticals, Inc., priority 2017, dated 2020)
